Experimental data published in PubChem BioAssay (NCI).
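Tested at 5 concentrations; 48 h exposure; 96-well plates; endpoints linearly interpolated, else capped at highest concentration. TGI is the concentration that stops growth completely.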

Key:
Experiment in all cases: growth of human tumour cells (NCI), 48 h
T-47D breast = test system: T-47D breast
HT29 colon = test system: HT29 colon
MDA-N = test system: MDA-N
NCI/ADR-RES ovarian = test system: NCI/ADR-RES ovarian
MOLT-4 leukemia = test system: MOLT-4 leukemia
UO-31 renal = test system: UO-31 renal
RXF 393 renal = test system: RXF 393 renal
OVCAR-3 ovarian = test system: OVCAR-3 ovarian
SNB-75 CNS = test system: SNB-75 CNS
K-562 leukemia = test system: K-562 leukemia
MALME-3M melanoma = test system: MALME-3M melanoma
MDA-MB-435 = test system: MDA-MB-435
OVCAR-8 ovarian = test system: OVCAR-8 ovarian
SNB-19 CNS = test system: SNB-19 CNS
SK-MEL-28 melanoma = test system: SK-MEL-28 melanoma
SF-268 CNS = test system: SF-268 CNS
EKVX NSCLC = test system: EKVX NSCLC
HCT-15 colon = test system: HCT-15 colon
786-0 renal = test system: 786-0 renal
SK-MEL-5 melanoma = test system: SK-MEL-5 melanoma
MCF7 breast = test system: MCF7 breast
SF-539 CNS = test system: SF-539 CNS
A549 NSCLC = test system: A549 NSCLC
HCT-116 colon = test system: HCT-116 colon
SR leukemia = test system: SR leukemia
CCRF-CEM leukemia = test system: CCRF-CEM leukemia
HCC-2998 colon = test system: HCC-2998 colon
NCI-H23 lung = test system: NCI-H23 lung
A498 renal = test system: A498 renal
RPMI-8226 leukemia = test system: RPMI-8226 leukemia
HOP-62 NSCLC = test system: HOP-62 NSCLC
NCI-H226 lung = test system: NCI-H226 lung
HOP-92 NSCLC = test system: HOP-92 NSCLC
NCI-H522 lung = test system: NCI-H522 lung
MDA-MB-231 breast = test system: MDA-MB-231 breast
TK-10 renal = test system: TK-10 renal
LOX IMVI melanoma = test system: LOX IMVI melanoma
HL-60(TB) leukemia = test system: HL-60(TB) leukemia
UACC-62 melanoma = test system: UACC-62 melanoma
SK-MEL-2 melanoma = test system: SK-MEL-2 melanoma
HS 578T breast = test system: HS 578T breast
SN12C renal = test system: SN12C renal
SF-295 CNS = test system: SF-295 CNS
IGROV1 ovarian = test system: IGROV1 ovarian
NCI-H460 lung = test system: NCI-H460 lung
OVCAR-5 ovarian = test system: OVCAR-5 ovarian
M14 melanoma = test system: M14 melanoma
PC-3 prostate = test system: PC-3 prostate
SW-620 colon = test system: SW-620 colon
CAKI-1 renal = test system: CAKI-1 renal
OVCAR-4 ovarian = test system: OVCAR-4 ovarian
U251 CNS = test system: U251 CNS
ACHN renal = test system: ACHN renal
DU-145 prostate = test system: DU-145 prostate
KM12 colon = test system: KM12 colon
UACC-257 melanoma = test system: UACC-257 melanoma
COLO 205 colon = test system: COLO 205 colon
BT-549 breast = test system: BT-549 breast
SK-OV-3 ovarian = test system: SK-OV-3 ovarian

In the case of `CCCCCC(/C=C/[C@@H]1CC(=O)C[C@H]1O[Si](C)(C)C(C)(C)C)OCOCCOC` (some centres undefined), the TGI (T-47D breast) is reported as 44 µM, the TGI (HT29 colon) is reported as 10.1 µM and the TGI (MDA-N) is reported as 9.44 µM. For the same compound, the TGI (NCI/ADR-RES ovarian) was 10.5 µM, the TGI (MOLT-4 leukemia) was 4.97 µM and the TGI (UO-31 renal) was 6.44 µM. It also gave a TGI (RXF 393 renal) of 5.45 µM, a TGI (OVCAR-3 ovarian) of 11.3 µM and a TGI (SNB-75 CNS) of 11.5 µM. The TGI (K-562 leukemia) was 6.43 µM, the TGI (MALME-3M melanoma) was 5.32 µM and the TGI (MDA-MB-435) was 4.64 µM. It also gave a TGI (OVCAR-8 ovarian) of 18.3 µM, a TGI (SNB-19 CNS) of 12.9 µM and a TGI (SK-MEL-28 melanoma) of 10.5 µM. It also gave a TGI (SF-268 CNS) of 10.5 µM, a TGI (EKVX NSCLC) of 23.7 µM and a TGI (HCT-15 colon) of 15.2 µM. For the same compound, the TGI (786-0 renal) was 14.3 µM, the TGI (SK-MEL-5 melanoma) was 9.33 µM and the TGI (MCF7 breast) was greater than 43.5 µM. The TGI (SF-539 CNS) was 5.98 µM, the TGI (A549 NSCLC) was 33.5 µM and the TGI (HCT-116 colon) was 13.5 µM. The TGI (SR leukemia) was 6.37 µM, the TGI (CCRF-CEM leukemia) was greater than 100 µM and the TGI (HCC-2998 colon) was 29.8 µM. The TGI (NCI-H23 lung) was 12.9 µM, the TGI (A498 renal) was 18.1 µM and the TGI (RPMI-8226 leukemia) was 6.42 µM. It also gave a TGI (HOP-62 NSCLC) of 31.7 µM, a TGI (NCI-H226 lung) of 18.8 µM and a TGI (HOP-92 NSCLC) of 6.03 µM. For the same compound, the TGI (NCI-H522 lung) was 4.01 µM, the TGI (MDA-MB-231 breast) was 14.7 µM and the TGI (TK-10 renal) was 26.3 µM. For the same compound, the TGI (LOX IMVI melanoma) was 7 µM, the TGI (HL-60(TB) leukemia) was greater than 100 µM and the TGI (UACC-62 melanoma) was 7.64 µM. For the same compound, the TGI (SK-MEL-2 melanoma) was 12.6 µM, the TGI (HS 578T breast) was 8.04 µM and the TGI (SN12C renal) was 24.1 µM. It also gave a TGI (SF-295 CNS) of 25.5 µM, a TGI (IGROV1 ovarian) of 9.48 µM and a TGI (NCI-H460 lung) of 40.2 µM. For the same compound, the TGI (OVCAR-5 ovarian) was 28.8 µM, the TGI (M14 melanoma) was 19.5 µM and the TGI (PC-3 prostate) was 14.1 µM. It also gave a TGI (SW-620 colon) greater than 28.1 µM, a TGI (CAKI-1 renal) of 7.87 µM and a TGI (OVCAR-4 ovarian) of 26.3 µM. It also gave a TGI (U251 CNS) of 8.08 µM, a TGI (ACHN renal) of 8.76 µM and a TGI (DU-145 prostate) of 32.8 µM. For the same compound, the TGI (KM12 colon) was 8.96 µM, the TGI (UACC-257 melanoma) was 11 µM and the TGI (COLO 205 colon) was 17.8 µM. It also gave a TGI (BT-549 breast) of 11.7 µM and a TGI (SK-OV-3 ovarian) of 32 µM.

Compound `CC1(C)Oc2ccc(Cl)cc2C12CC2` has a TGI (T-47D breast) of 73.8 µM, a TGI (HT29 colon) of 34.7 µM and a TGI (MDA-N) of 35.9 µM. The TGI (NCI/ADR-RES ovarian) was 44 µM, the TGI (MOLT-4 leukemia) was 44.1 µM and the TGI (UO-31 renal) was 30.8 µM. For the same compound, the TGI (RXF 393 renal) was 30.2 µM, the TGI (OVCAR-3 ovarian) was 26.7 µM and the TGI (SNB-75 CNS) was 32.3 µM. For the same compound, the TGI (K-562 leukemia) was 39.2 µM, the TGI (MALME-3M melanoma) was 43.2 µM and the TGI (MDA-MB-435) was 32.6 µM. For the same compound, the TGI (OVCAR-8 ovarian) was 28.4 µM, the TGI (SNB-19 CNS) was 31.5 µM and the TGI (SK-MEL-28 melanoma) was 41.7 µM. For the same compound, the TGI (SF-268 CNS) was 31.6 µM, the TGI (EKVX NSCLC) was 37.9 µM and the TGI (HCT-15 colon) was 33 µM. For the same compound, the TGI (786-0 renal) was 31.3 µM, the TGI (SK-MEL-5 melanoma) was 38.6 µM and the TGI (MCF7 breast) was 33.3 µM. It also gave a TGI (SF-539 CNS) greater than 100 µM, a TGI (A549 NSCLC) of 48.4 µM and a TGI (HCT-116 colon) of 29 µM. The TGI (SR leukemia) was 36.4 µM, the TGI (CCRF-CEM leukemia) was greater than 100 µM and the TGI (HCC-2998 colon) was 30.6 µM. For the same compound, the TGI (NCI-H23 lung) was 59 µM, the TGI (A498 renal) was 29.9 µM and the TGI (RPMI-8226 leukemia) was greater than 100 µM. It also gave a TGI (HOP-62 NSCLC) of 37.7 µM, a TGI (NCI-H226 lung) of 32.2 µM and a TGI (MDA-MB-231 breast) of 47.6 µM. For the same compound, the TGI (TK-10 renal) was 40.7 µM, the TGI (LOX IMVI melanoma) was 30.9 µM and the TGI (HL-60(TB) leukemia) was 40.3 µM. It also gave a TGI (UACC-62 melanoma) greater than 100 µM, a TGI (SK-MEL-2 melanoma) of 33.4 µM and a TGI (HS 578T breast) of 44.8 µM. For the same compound, the TGI (SN12C renal) was 33.6 µM, the TGI (SF-295 CNS) was 27 µM and the TGI (IGROV1 ovarian) was 28.7 µM. It also gave a TGI (NCI-H460 lung) of 39.7 µM, a TGI (OVCAR-5 ovarian) of 34.2 µM and a TGI (M14 melanoma) of 35.5 µM. For the same compound, the TGI (PC-3 prostate) was 27.9 µM, the TGI (SW-620 colon) was 30.9 µM and the TGI (CAKI-1 renal) was 31.2 µM. For the same compound, the TGI (OVCAR-4 ovarian) was 29.6 µM, the TGI (U251 CNS) was 29.4 µM and the TGI (ACHN renal) was 30.1 µM. The TGI (DU-145 prostate) was 29.5 µM, the TGI (KM12 colon) was 53.1 µM and the TGI (UACC-257 melanoma) was 30.1 µM. It also gave a TGI (COLO 205 colon) of 32.9 µM, a TGI (BT-549 breast) of 68.5 µM and a TGI (SK-OV-3 ovarian) of 44.7 µM.

For `N=C1N=C(N)c2cc3c(cc21)SCCSCCCSCCS3`, the TGI (T-47D breast) was 69.1 µM, the TGI (HT29 colon) was greater than 48.6 µM and the TGI (MDA-N) was 33.8 µM. It also gave a TGI (NCI/ADR-RES ovarian) greater than 100 µM, a TGI (MOLT-4 leukemia) of 32.5 µM and a TGI (UO-31 renal) greater than 100 µM. The TGI (RXF 393 renal) was 41.3 µM, the TGI (OVCAR-3 ovarian) was 28.4 µM and the TGI (SNB-75 CNS) was 46.9 µM. It also gave a TGI (K-562 leukemia) of 31.8 µM, a TGI (MALME-3M melanoma) of 44.4 µM and a TGI (MDA-MB-435) of 15.9 µM. The TGI (OVCAR-8 ovarian) was 41.3 µM, the TGI (SNB-19 CNS) was 32.3 µM and the TGI (SK-MEL-28 melanoma) was 31.4 µM. The TGI (SF-268 CNS) was 32.4 µM, the TGI (EKVX NSCLC) was greater than 58.5 µM and the TGI (HCT-15 colon) was 32.3 µM. The TGI (786-0 renal) was 32.6 µM, the TGI (SK-MEL-5 melanoma) was 31.7 µM and the TGI (MCF7 breast) was greater than 55.7 µM. The TGI (SF-539 CNS) was greater than 54.6 µM, the TGI (A549 NSCLC) was 49.8 µM and the TGI (HCT-116 colon) was 23.6 µM. The TGI (SR leukemia) was 37.6 µM, the TGI (CCRF-CEM leukemia) was greater than 25.9 µM and the TGI (HCC-2998 colon) was 27.8 µM. It also gave a TGI (NCI-H23 lung) of 16.2 µM, a TGI (A498 renal) greater than 69.6 µM and a TGI (HOP-62 NSCLC) of 30.7 µM. For the same compound, the TGI (NCI-H226 lung) was greater than 73.2 µM, the TGI (HOP-92 NSCLC) was greater than 54.7 µM and the TGI (NCI-H522 lung) was 11.1 µM. The TGI (MDA-MB-231 breast) was 39.6 µM, the TGI (TK-10 renal) was 28.6 µM and the TGI (LOX IMVI melanoma) was 17.6 µM. It also gave a TGI (HL-60(TB) leukemia) of 20.6 µM, a TGI (UACC-62 melanoma) greater than 54.7 µM and a TGI (SK-MEL-2 melanoma) of 37.7 µM. It also gave a TGI (HS 578T breast) of 44.2 µM, a TGI (SN12C renal) of 33.2 µM and a TGI (SF-295 CNS) of 31.1 µM. It also gave a TGI (IGROV1 ovarian) of 38.4 µM, a TGI (NCI-H460 lung) of 29.9 µM and a TGI (OVCAR-5 ovarian) of 40.3 µM. It also gave a TGI (M14 melanoma) of 35.7 µM, a TGI (PC-3 prostate) of 34.7 µM and a TGI (SW-620 colon) of 30.7 µM. It also gave a TGI (CAKI-1 renal) greater than 63.4 µM, a TGI (OVCAR-4 ovarian) of 56.5 µM and a TGI (U251 CNS) greater than 50.7 µM. For the same compound, the TGI (ACHN renal) was 28.2 µM, the TGI (DU-145 prostate) was 88.4 µM and the TGI (KM12 colon) was 26.7 µM. For the same compound, the TGI (UACC-257 melanoma) was 44 µM, the TGI (COLO 205 colon) was 16.9 µM and the TGI (BT-549 breast) was 31.4 µM. It also gave a TGI (SK-OV-3 ovarian) of 41.1 µM.
